Reference: publication PMC11851449, “Blm10-Based Compounds Add to the Knowledge of How Allosteric Modulators Influence Human 20S Proteasome” (ACS Chemical Biology, 2025)

Assays:
[1] = test system: T1, human 20S proteasome; experiment: ChT-L peptidase activity of latent h20S probed with Suc-LLVY-AMC; format: biochemical; conditions: 10 μM bortezomib, Suc-LLVY-AMC 100 μM; activators could not overcome the inhibition
T1 construct: 20S proteasome was isolated from human erythrocytes; from tissue; host or cells: human erythrocytes
Method: (§1) The capacity of influencing the human 20S proteasome was examined using the latent enzyme isolated from human erythrocytes. Boc-LRR-AMC, Z-LLE-AMC, and Suc-LLVY-AMC fluorogenic substrates (Enzo Life Sciences Inc.) were used for assessment of the trypsin-, caspase-, and chymotrypsin-like activities, respectively. As an additional probe, we utilized a homemade FRET-type substrate DabEDS (Lys(Dabcyl)-[…]EDANS)-Gly[36]). Stock solutions of the substrates and modulators were prepared in dimethyl sulfoxide (DMSO). […] The activity assays were performed in a 96-well plate format in 50 mM Tris/HCl, pH 8.0. The CP was used at a final concentration of 0.002 mg mL^–1 (2.8 nM). The final concentrations of LLVY, LRR, and LLE substrates were 100 μM and DabEDS 15 μM. The concentration of reagents in the tests with inhibitors was as follows: 10 μM bortezomib (tebu-bio), 50 μM leupeptin (Roth), and 10 μM activators. The release of the aminomethylcoumarin (AMC) reporter group was followed by monitoring the fluorescence emission at 460 nm (λex was 380 nm). DabEDS hydrolysis was detected by measuring the emission at 493 nm, while the excitation wavelength was set at 335 nm. Fluorescence measurements were carried out using an Infinite M200 Pro plate reader (Tecan), every 2 min for up to 60 min at 37 °C. All activity assays were performed in at least three independent replicates.

[2] = test system: T1, human 20S proteasome; experiment: C-L peptidase activity of latent h20S probed with Z-LLE-AMC; format: biochemical; conditions: 10 μM bortezomib
Method: as §1

inhibition of h20S ChT-L activity (in words) [1]: complete loss of proteasome activity
SMILES: CC(C)C[C@H](NC(=O)[C@H](Cc1ccccc1)NC(=O)c1cnccn1)B(O)O [bortezomib]
inhibition of h20S C-L activity (in words) [2]: completely blocked the activity of the ChT-L and C-L
